{"source": "patent US10028956B2", "about": "“Methods of treating various cancers using an AXL/cMET inhibitor in combination with other agents” (Ignyta, Inc., priority 2013, dated 2018)", "key": {"PK in dog": {"assay": "PK in dog", "conditions": "in vivo"}, "PK in rat": {"assay": "PK in rat", "conditions": "in vivo"}, "[1]": {"test_system": "MDA-MB-231-Leu orthotopic breast tumor xenografts", "assay": "Metastases of MDA-MB-231-Leu orthotopic breast tumor xenografts", "assay_type": "in vivo, mice", "conditions": "oral administration, 10 and 30 mg/kg qd", "method": "The human breast cancer cell line MDA-MB-231-Leu-D3H2LN-luciferase expressing cell line was purchased from Caliper Life Sciences. This tumor cell line was generated by stable transfection of the firefly luciferase gene expressed from the SV40 promoter and further selected for its metastatic potential upon isolation from a spontaneous lymph node metastasis of MDA-MB-231-Luc cells in immune-compromised mice. The cells were grown in DMEM medium supplemented with 10% fetal bovine serum (FBS, Cat^# SH3007003, Hyclone, Logan, Utah). D-Luciferin firefly/potassium salt (Cat. # L-8220) was purchased from Biosynth International, Inc., Itasca, Ill.). Female nu/nu mice (6 to 8 weeks old) were purchased from Harlan Laboratories. […] Mouse body weights were measured on day 0 and then every 7 days, and bioluminescence image analysis performed at the end of the study using the Caliper Life Sciences (Xenogen) Spectrum imager as detailed in FIG. 6. Images of the primary tumor and potential metastatic tumors in lymph nodes were taken weekly, starting on day 7 post cell implantation. Prior to image acquisition, each mouse were give a 0.2 ml intra-peritoneal injection of D-Luciferin firefly/potassium salt and images were acquired 6-10 minutes post substrate administration. […] Counts were converted to average radiance or mean photon flux; expressed as photons per second (p/s). […]"}, "AXL": {"biological_target": "T1, AXL (Homo sapiens, UniProt P30530)", "T1 sequence (P30530 26-894)": "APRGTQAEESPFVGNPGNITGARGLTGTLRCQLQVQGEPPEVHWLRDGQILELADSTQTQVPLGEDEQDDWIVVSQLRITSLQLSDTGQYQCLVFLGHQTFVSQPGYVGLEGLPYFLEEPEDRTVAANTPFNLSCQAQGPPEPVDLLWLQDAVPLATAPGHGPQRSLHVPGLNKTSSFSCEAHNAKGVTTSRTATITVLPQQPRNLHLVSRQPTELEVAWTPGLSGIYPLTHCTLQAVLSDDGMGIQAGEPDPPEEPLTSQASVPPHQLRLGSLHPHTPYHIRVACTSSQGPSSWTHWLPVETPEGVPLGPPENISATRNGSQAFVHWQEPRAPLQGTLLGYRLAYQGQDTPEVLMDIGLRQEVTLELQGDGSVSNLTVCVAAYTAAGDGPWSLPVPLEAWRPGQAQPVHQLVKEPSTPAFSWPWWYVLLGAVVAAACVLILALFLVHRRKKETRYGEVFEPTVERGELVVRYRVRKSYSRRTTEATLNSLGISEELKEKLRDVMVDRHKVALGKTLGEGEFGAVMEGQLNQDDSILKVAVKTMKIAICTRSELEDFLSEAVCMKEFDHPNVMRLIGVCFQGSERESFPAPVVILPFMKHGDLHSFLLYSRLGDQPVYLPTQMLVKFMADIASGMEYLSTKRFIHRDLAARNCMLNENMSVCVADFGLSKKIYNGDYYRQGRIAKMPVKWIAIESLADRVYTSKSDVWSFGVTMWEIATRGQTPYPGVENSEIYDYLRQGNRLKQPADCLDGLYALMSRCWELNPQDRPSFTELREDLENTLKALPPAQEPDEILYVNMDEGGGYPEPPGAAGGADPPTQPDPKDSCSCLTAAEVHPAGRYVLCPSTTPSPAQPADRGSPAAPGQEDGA", "assay": "AXL enzyme inhibition (recombinant enzyme)", "assay_type": "biochemical"}, "[2]": {"test_system": "GTL-16 gastric carcinoma xenografts", "assay": "Anti-tumor efficacy in GTL-16 gastric carcinoma xenografts", "assay_type": "in vivo, mice", "conditions": "10 and 30 mg/kg oral qd", "text": "The human gastric cancer cell line, GTL-16 was purchased from ATCC (American Tissue Culture Collection, Manassas, Va.) and cultured in DMEM medium with 10% fetal bovine serum (FBS, Cat# SH3007003, Hyclone Laboratory Inc, Logan, Utah). Female Nu/Nu mice (6-8 weeks, Charles River Laboratory, Wilmington, Mass.) were maintained 5/cage in microisolator units on a standard laboratory diet (Teklad Labchow, Harlan Teklad, Madison, Wis.). Animals were housed under humidity- and temperature-controlled conditions and the light/dark cycle was set at 12-hour intervals. Mice were quarantined at least 1 week prior to experimental manipulation. […] The mice were then monitored daily. […] The length (L) and width (W) of each tumor was measured with a vernier caliper and the mouse body weight was determined every 2-3 days. The tumor volumes were then calculated with the formula of 0.5236*L*W*(L+W)/2. […] Plasma and tumor samples were obtained at 2 hours post final dose at each dose level, and the compound levels in plasma and tumor lysates were measured by LC-MS/MS. The TGI values were calculated at the end of study by comparing the tumor volumes (TV) of each CEP-40783-treatment group with those of vehicle-treated group with the following formula: 1-(the last day TV of compound-treated group/the last day TV of vehicle-treated group)."}, "[3]": {"conditions": "intravenous, 0.5 mg/kg i.v. and p.o."}, "[4]": {"conditions": "intravenous, 1 mg/kg i.v. and 3 mg/kg p.o."}}}
{"smiles": "COc1cc2nccc(Oc3ccc(NC(=O)c4cn(C(C)C)c(=O)n(-c5ccc(F)cc5)c4=O)cc3F)c2cc1OC", "note": "[CEP-40783, 3-(4-Fluorophenyl)-1-isopropyl-2,4-dioxo-1,2,3,4-tetrahydropyrimidine-5-carboxylic acid [4-(6,7-dimethoxyquinolin-4-yloxy)-3-fluorophenyl]-amide]", "values": [{"measurement": "Cmax", "setting": "PK in dog; 0.5 mg/kg i.v. and p.o.", "result": 1170, "unit": "ng/mL"}, {"measurement": "Vd", "setting": "PK in dog; [3]", "result": 1.3, "unit": "L/kg"}, {"measurement": "clearance", "setting": "PK in dog; [3]", "result": 0.5, "unit": "mL/min/kg"}, {"measurement": "half-life", "setting": "PK in dog; iv, 0.5 mg/kg i.v., read-out: t1/2 i.v. (converted)", "result": 27.6, "unit": "h"}, {"measurement": "bioavailability", "setting": "PK in dog; oral, 0.5 mg/kg i.v. and p.o.", "result": 100, "unit": "%"}, {"measurement": "AUC(0-t)", "setting": "PK in dog; po, 0.5 mg/kg p.o.", "result": 14400, "unit": "ng·h/mL"}, {"measurement": "Cmax", "setting": "PK in rat; 1 mg/kg i.v. and 3 mg/kg p.o.", "result": 593, "unit": "ng/mL"}, {"measurement": "Vd", "setting": "PK in rat; [4]", "result": 2.6, "unit": "L/kg"}, {"measurement": "clearance", "setting": "PK in rat; [4]", "result": 1.4, "unit": "mL/min/kg"}, {"measurement": "half-life", "setting": "PK in rat; iv, 1 mg/kg i.v., read-out: t1/2 i.v. (converted)", "result": 21.5, "unit": "h"}, {"measurement": "bioavailability", "setting": "PK in rat; oral, 1 mg/kg i.v. and 3 mg/kg p.o.", "result": 57, "unit": "%"}, {"measurement": "AUC(0-t)", "setting": "PK in rat; po, 3 mg/kg p.o.", "result": 16300, "unit": "ng·h/mL"}, {"measurement": "spontaneous lymph node and pulmonary metastatic tumor burden", "setting": "[1]", "result": "efficacious in reducing spontaneous lymph node and pulmonary metastatic tumor burden"}, {"measurement": "IC50", "setting": "AXL", "result": 7, "unit": "nM"}, {"measurement": "anti-tumor efficacy (tumor volume)", "setting": "[2]", "result": "tumor stasis and regressions"}]}
